Measured values published in US9709886B2, “Sulfonic acid derivative compounds as photoacid generators in resist applications” (Heraeus Precious Metals North America Daychem LLC, priority 2015, dated 2017).

Key:
Format in all cases: physicochemical
[1] = UV-Vis spectra in ACN; conditions: FIG. 4, in ACN (0.001% w/v)
Method: FIG. 4 is a UV-Vis spectra of compounds NIT, T1, T2 and T5 in ACN (0.001% w/v).
(§1) Photolysis of PAGs was carried out in acetonitrile in air at room temperature. The sodium salt of tetrabromophenol blue (TBPBNa), an acid indicator dye, which has a maximum absorption at 618 nm, was purchased from Aldrich (indicator grade) and used as received. Irradiation of the solution of the PAGs (3×10^−5 M) was performed using a Cole-Parmer UV 15 W bench lamp (EW-97605-50) at 365 nm. Light intensity was measured using an UV Power Puck II radiometer from EIT Inc. UV-Vis spectra were run on a Thermo Scientific Evolution 201 UV-visible spectrophotometer.

[2] = Photolysis of PAGs in acetonitrile, irradiation at 365 nm (photoreactivity); conditions: for Solubility × Photoreactivity: solubility in PGMEA times relative photoreactivity at 365 nm
From the text: A photoresist composition typically comprises PAG, polymers, additives and solvents. The performance of a photoresist composition is mainly dependent on the properties of the PAG and polymer components. To formulate a high-performance photoresist composition, more photosensitive PAGs are typically selected. The photosensitivity of a PAG is typically directly related to the strength of the generated acid and the photoreactivity of the PAG. For a series of PAGs producing the same latent acid, their photosensitivity is related only to their photoreactivity. Thus evaluating the photosensitivity of a PAG can be achieved by studying its photoreactivity. The higher photoreactivity, the higher photosensitivity. The photoreactivity can be investigated by photolysis of a PAG in its dilute solution under low exposure intensity (to avoid side reactions which don't generate the desired acid). The change in the concentration of a PAG upon irradiation can be determined by measuring the absorbance of the PAG at the maximum absorption wavelength.
as §1
Photolysis of NIT, comparative compound A and B, T1, T2, T3, and T5 was examined in acetonitrile. […] The absorption band at 362 nm (λmax) gradually decreases upon irradiation, indicating the progress of photoreaction with the increase of exposure dose of energy. Assuming the photoreaction is first-order, a plot of the natural log of changes in absorbance with exposure dose of energy gives the photoreaction constant of T3 (i.e., the slope of the linear trendline) (FIG. 2). The photoreaction constants of other compounds were similarly determined under the same irradiation condition. Comparing the constants of A, B, T1, T2, T3, and T5 with that of NIT normalized to one gives the relative photoreactivity (Table 9). […] The formation of acid upon irradiation was confirmed by observing the spectral changes of the acid indicator, TBPBNa at 618 nm.

[3] = Solubility of PAG in organic solvents at 20° C.; conditions: for solubility in the tested solvents: PGMEA, GBL; for solubility in the tested solvents / Solubility (w/w%) Cyclohexanone: cyclohexanone; for Solubility (w/w%) PGMEA: Propylene glycol monomethyl ether acetate; for Solubility (w/w%) GBL: γ-Butyrolactone
From the text: Solubility is an important factor in the evaluation of a PAG. High solubility not only makes a PAG purified readily but also enables a PAG to be used for a wide range of concentrations in photoresists and in varied solvent systems. To test the solubility of a PAG, a solvent is slowly added until the PAG is completely dissolved and no turbidity is observed in the clear solution. Table 8 lists the solubility (w/w %) of some representative N-hydroxynaphthalimide sulfonate derivatives versus NIT in various organic solvents at 20° C.

[4] = Solubility of PAG in organic solvents at 20° C.; conditions: Table 9; Propylene glycol monomethyl ether acetate

Structure (SMILES) | absorbance at i-line of a mercury lamp versus NIT [1] | absorption maximum [1] | Solubility × Photoreactivity [2] | solubility in the tested solvents [3] | Solubility (w/w%) PGMEA [3] | Solubility (w/w%) Cyclohexanone [3] | Solubility (w/w%) GBL [3] | Solubility (w/w%) in PGMEA [4] | absorption band (λmax) ([2]; FIG. 1, acetonitrile, before irradiation at 365 nm)
CCCCC#Cc1ccc2c3c(cccc13)C(=O)N(OS(=O)(=O)C(F)(F)F)C2=O [B, reference compound] |  |  | 48.8% |  | 6.1% w/w% | 11.5% w/w% | 2.3% w/w% | 6.1% w/w% | 
O=C1c2cccc3c(C#Cc4ccccc4)ccc(c23)C(=O)N1OS(=O)(=O)C(F)(F)F [A, reference compound] |  |  | 2.5% |  | 1.0% w/w% | 3.5% w/w% | 0.9% w/w% | 1.0% w/w% | 
CCCCCCC#Cc1ccc2c3c(cccc13)C(=O)N(OS(=O)(=O)C(F)(F)C(F)(F)C(F)(F)C(F)(F)F)C2=O [Compound T3] |  |  | 198% |  | 20.6% w/w% | 42.0% w/w% | 2.2% w/w% | 20.6% w/w% | 362 nm
O=C1c2cccc3cccc(c23)C(=O)N1OS(=O)(=O)C(F)(F)F [NIT, N-Hydroxynaphthalimide triflate, reference compound] |  |  | 1.7% |  | 1.7% w/w% | 5.9% w/w% | 2.2% w/w% | 1.7% w/w% | 
CCCCC#Cc1ccc2c3c(cccc13)C(=O)N(OS(=O)(=O)C(F)(F)C(F)(F)C(F)(F)C(F)(F)F)C2=O [Compound T1] | much larger than that of NIT | 362 nm | 77.2% |  | 8.3% w/w% | 19.7% w/w% | 1.5% w/w% | 8.3% w/w% | 

The next lines start with results.

absorbance at i-line of a mercury lamp versus NIT [1] | absorption maximum [1] | Solubility × Photoreactivity [2] | solubility in the tested solvents [3] | Solubility (w/w%) PGMEA [3] | Solubility (w/w%) Cyclohexanone [3] | Solubility (w/w%) GBL [3] | Solubility (w/w%) in PGMEA [4] | Structure (SMILES) | absorption band (λmax) ([2]; FIG. 1, acetonitrile, before irradiation at 365 nm)
much larger than that of NIT | 353 nm | 200% | extremely high solubility | 50.1% w/w% | 55.4% w/w% | 32.4% w/w% | 50.1% w/w% | CCCC(=O)OCC#Cc1ccc2c3c(cccc13)C(=O)N(OS(=O)(=O)C(F)(F)F)C2=O [Compound T5] | 
much larger than that of NIT | 362 nm | 394% | extremely high solubility | 45.8% w/w% | 52.4% w/w% | 23.1% w/w% | 45.8% w/w% | CCCCCCC#Cc1ccc2c3c(cccc13)C(=O)N(OS(=O)(=O)C(F)(F)F)C2=O [Compound T2] | 
